From patent US8618138B2, “Indole amide derivatives and related compounds for use in the treatment of neurodegenerative diseases” (Katholieke Universiteit Leuven, K.U. Leuven R&D, priority 2009, dated 2013)

tested on: M17-TAU P301L cells; assay: TAU cytotoxicity assay: LDH leakage of retinoic acid incubated M17-TAU P301L cells; type: cell-based, human; conditions: Homo sapiens, 168 h, reduction of LDH activity of retinoic acid incubated M17-TAU P301L cells, 7 days
From the text: A TAU expression plasmid was constructed by sub-cloning the cDNA of human TAU-P301 L (encoding for TAU with proline 301 substituted by a leucine residue) into mammalian expression vector pcDNA3.1 resulting in plasmid pcDNA3.1-TAU P301L. Plasmids pcDNA3.1 and pcDNA3.1-TAU P301L were transfected to human neuroblastoma cells ([…]; ATCC No. CRL-2267) and independent clonal lines with the plasmids stably integrated into the genome were selected. […] Expression of the TAU P301L genes in the cell lines was confirmed by Western analysis.
In degenerated or dead cells lactate dehydrogenase (LDH) is leaked out of the cells into the extracellular environment due to a loss of plasma-membrane integrity. This principle was used to determine cytotoxicity by quantifying the level of leaked LDH into the growth medium.
The detailed method for determining TAU cytotoxicity was as follows: From appropriate precultures of M17-3.1 and M17-TAU(P301L) cells were seeded at 2500 cells/cm2 in Optimem Reduced Serum without phenol red (Gibco, Cat. 31985-047) supplemented with 1% fetal calf serum, 1 mM sodium pyruvate, 1× non-essential amino acids, 500 μg/ml G418 0.5× antibiotic/antimycotic. After 3 h of incubation at 37° C./5% CO2 1 volume of Optimem Reduced Serum (same as described above; except without fetal calf serum) supplemented with 2.5 μM retinoic acid (RA) was added. The cells were further incubated for 7 days. Subsequently, LDH activity was determined using Promega Cytotox 96 Non-Radioactive cytotoxicity assay, (Cat. G1780) according the supplier's instructions.
The M17-TAU P301L cell line made it possible to assess the ability of novel compounds to counteract TAU cytotoxicity. […] These measurements were used to calculate EC50 values of table 2.
Exemplary compounds of the present invention are shown in table 2, with their chemical name and their EC50 value (expressed in nM) as determined from example 196 in the Tau-induced toxicity experiment.

Compound	EC50
CC(c1ccccc1)N1CCC(C(=O)NCCc2c[nH]c3ccc(Cl)cc23)C1=O (single isomer, unassigned) [D156 Fraction A, N-(2-(5-chloro-1H-indol-3-yl)ethyl)-2-oxo-1-(1-phenylethyl)pyrrolidine-3-carboxamide]	819 nM
COc1cccc(Cc2cc(C(=O)NCCc3c[nH]c4ccc(Cl)cc34)no2)c1 [Example D1, N-(2-(5-chloro-1H-indol-3-yl)ethyl)-5-(3-methoxybenzyl)isoxazole-3-carboxamide]	2 nM
O=C(NCCc1c[nH]c2ccc(Cl)cc12)c1cc(C2CCCC2)on1 [Example D2, N-(2-(5-chloro-1H-indol-3-yl)ethyl)-5-cyclopentylisoxazole-3-carboxamide]	3 nM
N#Cc1cccc(Cc2cc(C(=O)NCCc3c[nH]c4ccc(Cl)cc34)no2)c1 [Example D3, N-(2-(5-chloro-1H-indol-3-yl)ethyl)-5-(3-cyanobenzyl)isoxazole-3-carboxamide]	6 nM
N#Cc1ccc(Cc2cc(C(=O)NCCc3c[nH]c4ccc(Cl)cc34)no2)cc1 [Example D4, N-(2-(5-chloro-1H-indol-3-yl)ethyl)-5-(4-cyanobenzyl)isoxazole-3-carboxamide]	9 nM
O=C(NCCc1c[nH]c2ccc(Cl)cc12)c1cc(C2CC2)on1 [Example D6, N-(2-(5-chloro-1H-indol-3-yl)ethyl)-5-cyclopropylisoxazole-3-carboxamide]	13 nM
O=C(NCCc1c[nH]c2ccc(Cl)cc12)c1cc(Cc2ccccc2)on1 [Example D7, 5-benzyl-N-(2-(5-chloro-1H-indol-3-yl)ethyl)isoxazole-3-carboxamide]	15 nM
COc1ccccc1Cc1cc(C(=O)NCCc2c[nH]c3ccc(Cl)cc23)no1 [Example D8, N-(2-(5-chloro-1H-indol-3-yl)ethyl)-5-(2-methoxybenzyl)isoxazole-3-carboxamide]	16 nM
O=C(NCCc1c[nH]c2ccc(Cl)cc12)c1cc(Cc2ccc(C(F)(F)F)cc2)on1 [Example D9, N-(2-(5-chloro-1H-indol-3-yl)ethyl)-5-(4-(trifluoromethyl)benzyl)isoxazole-3-carboxamide]	16 nM
COc1ccc(Cc2cc(C(=O)NCCc3c[nH]c4ccc(Cl)cc34)no2)cc1 [Example D10, N-(2-(5-chloro-1H-indol-3-yl)ethyl)-5-(4-methoxybenzyl)isoxazole-3-carboxamide]	17 nM
O=C(NCCc1c[nH]c2ccc(Cl)cc12)c1cc(-c2ccco2)on1 [Example D11, N-(2-(5-chloro-1H-indol-3-yl)ethyl)-5-(furan-2-yl)isoxazole-3-carboxamide]	17 nM
Cc1ccc(Cc2cc(C(=O)NCCc3c[nH]c4ccc(Cl)cc34)no2)cc1 [Example D12, N-(2-(5-chloro-1H-indol-3-yl)ethyl)-5-(4-methylbenzyl)isoxazole-3-carboxamide]	17 nM
O=C(NCCc1c[nH]c2ccc(Cl)cc12)c1cc(C2CCCCC2)on1 [Example D13, N-(2-(5-chloro-1H-indol-3-yl)ethyl)-5-cyclohexylisoxazole-3-carboxamide]	18 nM
Cc1ccc2[nH]cc(CCNC(=O)c3cc(Cc4cccc(F)c4)on3)c2c1 [Example D14, 5-(3-fluorobenzyl)-N-(2-(5-methyl-1H-indol-3-yl)ethyl)isoxazole-3-carboxamide]	19 nM
Cn1nc(C(=O)NCCc2c[nH]c3ccc(Cl)cc23)cc1-c1cccs1 [Example D15, N-(2-(5-chloro-1H-indol-3-yl)ethyl)-1-methyl-5-(thiophen-2-yl)-1H-pyrazole-3-carboxamide]	21 nM
O=C(NCCc1c[nH]c2ccc(Cl)cc12)c1cc(-c2cccs2)on1 [Example D16, N-(2-(5-chloro-1H-indol-3-yl)ethyl)-5-(thiophen-2-yl)isoxazole-3-carboxamide]	21 nM
O=C(NCCc1c[nH]c2ccc(Cl)cc12)c1cc(Cc2ccco2)on1 [Example D17, N-(2-(5-chloro-1H-indol-3-yl)ethyl)-5-(furan-2-ylmethyl)isoxazole-3-carboxamide]	22 nM
Cn1nc(C(=O)NCCc2c[nH]c3ccc(Cl)cc23)cc1-c1ccco1 [Example D19, N-(2-(5-chloro-1H-indol-3-yl)ethyl)-5-(furan-2-yl)-1-methyl-1H-pyrazole-3-carboxamide]	23 nM

Compound	EC50
Cc1cccc(Cc2cc(C(=O)NCCc3c[nH]c4ccc(Cl)cc34)no2)c1 [Example D20, N-(2-(5-chloro-1H-indol-3-yl)ethyl)-5-(3-methylbenzyl)isoxazole-3-carboxamide]	23 nM
COc1cccc(Cc2cc(C(=O)NCCc3c[nH]c4ccc(Cl)cc34)no2)c1F [Example D21, N-(2-(5-chloro-1H-indol-3-yl)ethyl)-5-(2-fluoro-3-methoxybenzyl)isoxazole-3-carboxamide]	25 nM
O=C(NCCc1c[nH]c2ccc(Cl)cc12)c1cc(Cc2ccoc2)on1 [Example D22, N-(2-(5-chloro-1H-indol-3-yl)ethyl)-5-(furan-3-ylmethyl)isoxazole-3-carboxamide]	28 nM
O=C(NCCc1c[nH]c2ccc(Cl)cc12)c1cc(Cc2cccc(F)c2)on1 [Example D23, N-(2-(5-chloro-1H-indol-3-yl)ethyl)-5-(3-fluorobenzyl)isoxazole-3-carboxamide]	30 nM
Cc1ccc(-c2nc(C)c(C(=O)NCCc3c[nH]c4ccccc34)s2)cc1 [Example D24, N-(2-(1H-indol-3-yl)ethyl)-4-methyl-2-p-tolylthiazole-5-carboxamide]	34 nM
O=C(NCCc1c[nH]c2ccc(Cl)cc12)c1cc(Cc2ccsc2)on1 [Example D25, N-(2-(5-chloro-1H-indol-3-yl)ethyl)-5-(thiophen-3-ylmethyl)isoxazole-3-carboxamide]	35 nM
Cn1nc(C(=O)NCCc2c[nH]c3ccc(Cl)cc23)cc1-c1ccccc1 [Example D26, N-(2-(5-chloro-1H-indol-3-yl)ethyl)-1-methyl-5-phenyl-1H-pyrazole-3-carboxamide]	38 nM
O=C(NCCc1c[nH]c2ccc(Cl)cc12)c1cc(Cc2cccs2)on1 [Example D27, N-(2-(5-chloro-1H-indol-3-yl)ethyl)-5-(thiophen-2-ylmethyl)isoxazole-3-carboxamide]	38 nM
O=C(NCCc1c[nH]c2ccc(F)cc12)c1cc(Cc2cccc(F)c2)on1 [Example D28, N-(2-(5-fluoro-1H-indol-3-yl)ethyl)-5-(3-fluorobenzyl)isoxazole-3-carboxamide]	41 nM
CC(C)(C)OC(=O)Nc1cc(C(=O)NCCc2c[nH]c3ccc(Cl)cc23)no1 [Example D29, tert-butyl 3-(2-(5-chloro-1H-indol-3-yl)ethylcarbamoyl)isoxazol-5-ylcarbamate]	42 nM
O=C(NCCc1c[nH]c2ccc(Cl)cc12)c1cc(Cc2cccc(C(F)(F)F)c2)on1 [Example D30, N-(2-(5-chloro-1H-indol-3-yl)ethyl)-5-(3-(trifluoromethyl)benzyl)isoxazole-3-carboxamide]	42 nM
O=C(NCCc1c[nH]c2ccccc12)c1cc(Cc2cccc(F)c2)on1 [Example D31, N-(2-(1H-indol-3-yl)ethyl)-5-(3-fluorobenzyl)isoxazole-3-carboxamide]	44 nM
COc1ccc2[nH]cc(CCNC(=O)c3sc(-c4ccc(C)cc4)nc3C)c2c1 [Example D32, N-(2-(5-methoxy-1H-indol-3-yl)ethyl)-4-methyl-2-p-tolylthiazole-5-carboxamide]	50 nM
CCCc1cc(-c2nc(C)c(C(=O)NCCc3c[nH]c4ccccc34)s2)ccn1 [Example D33, N-(2-(1H-indol-3-yl)ethyl)-4-methyl-2-(2-propylpyridin-4-yl)thiazole-5-carboxamide]	56 nM
O=C(NCc1c[nH]c2ccc(Cl)cc12)c1cc(Cc2cccc(F)c2)on1 [Example D34, N-((5-chloro-1H-indol-3-yl)methyl)-5-(3-fluorobenzyl)isoxazole-3-carboxamide]	59 nM
O=C(NCCCc1c[nH]c2ccc(Cl)cc12)c1cc(Cc2cccc(F)c2)on1 [Example D35, N-(3-(5-chloro-1H-indol-3-yl)propyl)-5-(3-fluorobenzyl)isoxazole-3-carboxamide]	60 nM
O=C(NCCc1c[nH]c2ccc(Cl)cc12)c1cc(-c2ccccc2)on1 [Example D36, N-(2-(5-chloro-1H-indol-3-yl)ethyl)-5-phenylisoxazole-3-carboxamide]	61 nM
Cc1ccc(-c2nc(C)c(C(=O)NCCc3c[nH]c4ccc(F)cc34)s2)cc1 [Example D37, N-(2-(5-fluoro-1H-indol-3-yl)ethyl)-4-methyl-2-p-tolylthiazole-5-carboxamide]	61 nM

same assay, conditions: reduction of LDH activity of retinoic acid incubated M17-TAU P301L cells, 7 days

Compound	EC50
CC(c1ccccc1)N1CCC(C(=O)NCCc2c[nH]c3ccc(Cl)cc23)C1=O (single isomer, unassigned) [D156 Fraction B, N-(2-(5-chloro-1H-indol-3-yl)ethyl)-2-oxo-1-(1-phenylethyl)pyrrolidine-3-carboxamide]	1180 nM
